Measurements taken from US4369188A, “2-Thioxobenz[cd]indole-1(2H)-acetic acid derivatives” (Ayerst, McKenna & Harrison Inc., priority 1981, dated 1983).

What was measured:
lens aldose reductase = target: T1, lens aldose reductase (Bos taurus, UniProt P16116); experiment: in vitro aldose reductase inhibition (modified Hayman and Kinoshita procedure); assay type: biochemical; conditions: enzyme from bovine lens, read-out: % Inhibition at Different Molar Concentrations (in vitro); for inhibition at 10 µM: 10^-5 molar; for inhibition at 1 µM: 10^-6 molar; for inhibition at 0.1 µM: 10^-7 molar
T1 construct: the preparation of the enzyme from bovine lens; from tissue; host or cells: bovine lens
Description: In the present case, the procedure of Hayman and Kinoshita is modified in that the final chromatography step is omitted in the preparation of the enzyme from bovine lens.
Table 1 gives the results of the compounds of formula I or an addition salt thereof when evaluated in the above in vitro test.

[1] = test system: dulcitol accumulation in the lens; experiment: galactosemic rats: decrease of dulcitol accumulation in the lens; assay type: in vivo, rat (Sprague-Dawley)
Description: The aldose reductase inhibiting property of a compound of formula I and its utilization in diminishing and alleviating diabetic complications also are demonstrable in experiments using galactosemic rats, see D. Dvornik et al., Science, 182, 1146 (1973). Such experiments are exemplified hereinbelow after the listing of the following general comments pertaining to these experiments:
(a) Four or more groups of six male rats, 50-70 g, Sprague-Dawley strain, were used. The first group, the control group, was fed a mixture of laboratory chow (rodent laboratory chow, Purina) and glucose at 20% (w/w %) concentration. The untreated galactosemic group was fed a similar diet in which galactose is substituted for glucose. The other groups were fed diets containing various amounts of the compound of formula I in the galacetose containing diet. The concentration of galactose in the diet of the treated groups was the same as that for the untreated galactosemic group.
(b) After four days, the animals were killed by decapitation. The eyeballs were removed and punctured with a razor blade; the freed lenses were rolled gently on filter paper and weighed. The sciatic nerves were dissected as completely as possible and weighed. Both tissues were frozen and kept up to two weeks before being analyzed for dulcitol.
(c) The tissues were homoginized in 5% (w/v) trichloroacetic acid and the polyol determination on the extracts were performed by a modification of the procedure of M. Kraml and L. Cosyns, Clin. Biochem., 2, 373 (1969). Only two minor reagent changes were made: (a) The rinsing mixture was an aqueous 5% (w/v) trichloroacetic acid solution and (b) the stock solution was prepared by dissolving 25 mg of dulcitol in 100 ml of an aqueous trichloroacetic acid solution. [N.B.: For each experiment the average value found in the tissued from rats fed the glucose diet was subtracted from the individual values found in the corresponding rat tissue to obtain the amount of polyol accumulated].
The results obtained are exemplified in Table 2, wherein the values under L and N respectively, represent the percentage decreases of dulcitol accumulation in the tissues of the lens, and sciatic nerve for treated rats as compared to controls.

[2] = 131 mg/kg/day in galactose diet, 4 days, vs controls

Compound	inhibition at 10 µM (lens aldose reductase)	inhibition at 1 µM (lens aldose reductase)	percentage decrease of dulcitol accumulation in lens (L) ([1]; 150 mg/kg/day in galactose diet, 4 days, vs controls)	inhibition at 0.1 µM (lens aldose reductase)	percentage decrease of dulcitol accumulation in lens (L) ([1]; 165 mg/kg/day in galactose diet, 4 days, vs controls)	percentage decrease of dulcitol accumulation in lens (L) [1, 2]	percentage decrease of dulcitol accumulation in lens (L) ([1]; 128 mg/kg/day in galactose diet, 4 days, vs controls)	percentage decrease of dulcitol accumulation in lens (L) ([1]; 144 mg/kg, 96 h)	percentage decrease of dulcitol accumulation in lens (L) ([1]; 134 mg/kg/day in galactose diet, 4 days, vs controls)	percentage decrease of dulcitol accumulation in lens (L) ([1]; 141 mg/kg/day in galactose diet, 4 days, vs controls)
NCCOC(=O)CN1C(=S)c2cccc3cccc1c23 [2-Thioxo-benz[cd]indole-1(2H)-acetic Acid, 2-Amino-ethyl Ester]	83%	29%	–	–	–	–	–	–	–	–
CCOC(=O)CN1C(=S)c2cccc3cccc1c23 [2-thioxo-benz[cd]indole-1(2H)-acetic acid, ethyl ester]	66%	11%	11%	–	–	–	–	–	–	–
O=C(O)CN1C(=S)c2cccc3cccc1c23 [2-thioxo-benz[cd]indole-1(2H)-acetic acid]	93%	87%	–	61%	18%	–	–	–	–	–
O=C(O)CN1C(=S)c2cccc3c(Br)cc(Br)c1c23 [6,8-dibromo-2-thioxo-benz[cd]indole-1(2H)-acetic acid]	89%	56%	–	13%	–	9%	–	–	–	–
O=C(O)CN1C(=S)c2cccc3c(Cl)cc(Cl)c1c23 [6,8-dichloro-2-thioxo-benz[cd]indole-1(2H)-acetic acid]	94%	76%	–	30%	–	–	18%	–	–	–
O=C(O)CN1C(=S)c2cccc3c(Br)ccc1c23 [6-Bromo-2-thioxo-benz[cd]indole-1(2H)-acetic Acid]	95%	91%	–	79%	–	27%	–	–	–	–
CN(C)CCCOC(=O)CN1C(=S)c2cccc3c(Cl)ccc1c23 [6-Chloro-2-thioxo-benz[cd]indole-1(2H)-acetic Acid, 3-Dimethylamino-1propylEster]	91%	70%	–	14%	–	–	–	28%	–	–
O=C(O)CN1C(=S)c2cccc3c(Cl)ccc1c23 [6-chloro-2-thioxo-benz[cd]indole-1(2H)-acetic acid]	96%	91%	–	66%	–	–	–	–	27%	–
O=C(O)CN1C(=S)c2cccc3c(F)ccc1c23 [6-fluoro-2-thioxo-benz[cd]indole-1(2H)-acetic acid]	94%	88%	–	56%	–	–	–	–	–	–
O=C(O)CN1C(=S)c2cccc3c(I)ccc1c23 [6-iodo-2-thioxo-benz[cd]indole-1(2H)-acetic acid]	93%	91%	–	81%	–	–	–	–	–	32%
